Measured values from the supplement of paper PMC10883282.
± gives the standard deviation of the averaged measurements.

Tested on: SW982
Experiment: relative viability vs DMSO control (72 h) (fraction); higher = more viable cells
Outline: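 Plates held 72 h at 37 °C and 5% CO2 contained sarcoma cell lines seeded in 384-well format to reach 80–90% confluence, plus 2.5 µl of serially diluted compound added after 24 h. Source plate concentrations ran from 10 mM to 0.0002 mM, with 0.1% DMSO as vehicle and a 5 µM positive control. Percent growth from ATPLite readings, averaged over up to triplicate wells, gave relative viability. Values were rescaled with 1 as full and 0 as none.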

Row | SMILES | relative viability (0.00017 µM) | relative viability (0.00051 µM) | relative viability (0.00152 µM) | relative viability (0.00457 µM) | relative viability (0.01372 µM) | relative viability (0.04115 µM) | relative viability (0.1235 µM) | relative viability (0.3704 µM) | relative viability (1.111 µM) | relative viability (3.333 µM) | relative viability (10 µM)
1 | O=C(Nc1cnn2ccc(N3CCC[C@@H]3c3cc(F)ccc3F)nc12)N1CC[C@H](O)C1 [Larotrectinib] | 1.02 ± 0.015 | 1 ± 0.022 | 1.01 ± 0.036 | 1.07 ± 0.026 | 1.07 ± 0.031 | 1.058 ± 0.0089 | 1.05 ± 0.025 | 1.02 ± 0.019 | 1.05 ± 0.027 | 1.05 ± 0.032 | 1.01 ± 0.02
2 | COCc1c(-c2cc3cc(C)cc(OC)c3s2)c2c(N)ncnn2c1CN1CCNC(=O)C1 [Rogaratinib] | 1.05 ± 0.019 | 1.06 ± 0.028 | 1.07 ± 0.058 | 1.06 ± 0.012 | 1.06 ± 0.027 | 1.07 ± 0.028 | 1.06 ± 0.065 | 1.06 ± 0.044 | 0.996 ± 0.024 | 0.728 ± 0.023 | 0.362 ± 0.0075
3 | Cn1cnc2c(F)c(Nc3ccc(Br)cc3F)c(C(=O)NOCCO)cc21 [Binimetinib] | 0.974 ± 0.046 | 1.04 ± 0.019 | 1.07 ± 0.018 | 0.981 ± 0.056 | 0.99 ± 0.05 | 0.92 ± 0.058 | 0.833 ± 0.043 | 0.831 ± 0.051 | 0.809 ± 0.038 | 0.786 ± 0.035 | 0.765 ± 0.042
4 | Cn1cc(-c2cc3c(N4CCN(c5ncc([C@@](C)(N)c6ccc(F)cc6)cn5)CC4)ncnn3c2)cn1 [Avapritinib] | 0.99 ± 0.026 | 0.956 ± 0.05 | 0.957 ± 0.093 | 0.93 ± 0.07 | 0.964 ± 0.061 | 0.962 ± 0.081 | 0.902 ± 0.033 | 0.928 ± 0.025 | 0.905 ± 0.044 | 0.894 ± 0.033 | 0.8071 ± 0.0062
5 | C[C@]1(O)C[C@@H](c2nc(-c3ccc4ccc(-c5ccccc5)nc4c3)c3c(N)nccn32)C1 [Linsitinib] | 1.01 ± 0.028 | 1.04 ± 0.026 | 1.03 ± 0.028 | 1.05 ± 0.031 | 1.05 ± 0.028 | 1.02 ± 0.041 | 0.918 ± 0.041 | 0.875 ± 0.035 | 0.824 ± 0.045 | 0.79 ± 0.035 | 0.583 ± 0.021
6 | Cc1cc(Nc2ncnc3ccc(NC4=NC(C)(C)CO4)cc23)ccc1Oc1ccn2ncnc2c1 [Tucatinib] | 1.05 ± 0.062 | 1.11 ± 0.02 | 1.1 ± 0.022 | 1.09 ± 0.031 | 1.078 ± 0.0072 | 1.088 ± 0.0077 | 1.08 ± 0.035 | 1.059 ± 0.01 | 1.08 ± 0.046 | 1.1 ± 0.044 | 1.06 ± 0.026
7 | Nc1cc(C(F)(F)F)c(-c2cc(N3CCOCC3)nc(N3CCOCC3)n2)cn1 [Buparlisib] | 1 ± 0.025 | 1 ± 0.033 | 1.04 ± 0.031 | 1.03 ± 0.049 | 1.04 ± 0.011 | 1.02 ± 0.041 | 0.983 ± 0.035 | 0.86 ± 0.02 | 0.405 ± 0.033 | 0.146 ± 0.0066 | 0.0979 ± 0.0037
8 | C[C@@H]1CCN(C(=O)CC#N)C[C@@H]1N(C)c1ncnc2[nH]ccc12 [Tofacitinib] | 1.01 ± 0.036 | 1.05 ± 0.03 | 1.04 ± 0.03 | 1.03 ± 0.031 | 1.07 ± 0.037 | 1.03 ± 0.05 | 1.05 ± 0.05 | 1.06 ± 0.035 | 1.05 ± 0.042 | 1.04 ± 0.034 | 0.93 ± 0.081
9 | COc1cc2/c(=N/c3ccc(Br)cc3F)nc[nH]c2cc1OCC1CCN(C)CC1 [Vandetanib] | 0.997 ± 0.044 | 1 ± 0.035 | 0.977 ± 0.021 | 1.01 ± 0.033 | 1.01 ± 0.078 | 1.03 ± 0.041 | 0.983 ± 0.075 | 0.873 ± 0.077 | 0.699 ± 0.084 | 0.291 ± 0.032 | 0.0207 ± 0.0067
